The subject of one series is A549 (lung cancer). Kind of series: cells. Particulars: for IC50 (50% cell growth inhibition concentration) / LC50 (50% cell destroying lethal concentration): A549. The source says:
(§1) The cancer cell growth inhibition test was primarily used to detect the effect of a candidate drug on cancer cell proliferation. The working principle involved therein is the ability of viable cells to shift alamarBlue (Biosource, USA) from its originally non-fluorescent oxidized state to a reduced form (fluorescent, red) having fluorescence via metabolic reaction. According to the fluorescent data result generated by the alamarBlue reagent thus obtained, the proliferation of the viable cells and cell activity can be quantified for detection.
(§2) In this experiment, the assay concentrations of the candidate drug were set to be 0.01, 0.1, 1, 10, and 100 μg/ml, and the following cell lines were used: 6 human cancer cells MCF-7 (breast cancer), HT-29 (colon cancer), HL-60 (leukemia), HepG2 (liver cancer), A549 (lung cancer), and U937 (lymphoma cancer), and a normal human umbilical venal epithelial cell (HUVEC).
(§3) In order to further understand the bioactivity of the products TSB-0 to TSB-8 of this invention when they are used in combination, mixture formulations TSB-9, TSB-10, TSB-11, TSB-12 and TSB-13 were prepared according to Table 4 below.

The subject of another series is HL-60 (leukemia). Kind of series: cells. Particulars: for IC50 (50% cell growth inhibition concentration) / LC50 (50% cell destroying lethal concentration): HL-60.
Source text: as §1, §2, §3

A further series deals with HT-29 (colon cancer). As to the kind of experiment: cells. To be noted: for IC50 (50% cell growth inhibition concentration) / LC50 (50% cell destroying lethal concentration): HT-29.
Source text: as §1, §2, §3

The subject of the next series is HepG2 (liver cancer). Kind of series: cells. To be noted: for IC50 (50% cell growth inhibition concentration) / LC50 (50% cell destroying lethal concentration): HepG2.
Source text: as §1, §2, §3

Another series relates to MCF-7 (breast cancer). As to the kind of experiment: cells. Particulars: for IC50 (50% cell growth inhibition concentration) / LC50 (50% cell destroying lethal concentration): MCF-7.
Source text: as §1, §2, §3

In a further series the test system is U937 (lymphoma cancer). Kind of series: cells. Particulars: for IC50 (50% cell growth inhibition concentration) / LC50 (50% cell destroying lethal concentration): U937.
Source text: as §1, §2, §3

Series [1] concerns normal human umbilical venal epithelial cell (HUVEC).
Source text: as §1, §2, §3

A further series has as its system tumor/cancer cells. Kind of series: in vitro anti-cancer tests, overall statements. It is filed as cell-based, human. Particulars: summary of in vitro results.
Series [2] can be described thus: body weights of tumor-bearing test animals. It is filed as in vivo, mice. To be noted: 2 mg/kg × 5. How it is done: Mixture formulation TSB-9 was further subjected to an animal test, in which female mice (6–8 weeks old, weighing 20–22 grams) originally from C.B-17/Icr background and having Severe Combined Immune Deficiency (SCID) were used.
Human breast cancer cells MCF-7 (ATCC HTB-22) (1×10^7 cells/0.2 ml) were implanted subcutaneously into the dorsal side of the mice, and 50 μg/mouse of estradiol benzoate (Sigma, USA) was injected subcutaneously into the mice weekly as supplement for a total of 4 weeks. When the tumor growth reached ≧5 mm in diameter (that very day was denoted as day 1), tumor-bearing nude mice were randomly divided into 4 groups (6 mice in each group).
Mixture formulation TSB-9 was dissolved in 10% DMSO, and was administered orally to the mice every day at two dosages 40 mg/kg and 80 mg/kg, respectively, for a total of 21 consecutive days. […] This treatment group served as a positive control.
Measurements were taken once every 4 days during the experiment periods, and were recorded.

Each structure is given as a SMILES string.

`CC(C)=CCc1c2c(c(O)c3c1OC14C(=CC5CC1C(C)(C)OC4(C/C=C(\C)C(=O)O)C5=O)C3=O)C=CC(C)(C)O2` (stereo not shown) [TSB-2, isomorellic acid]: the “IC50 (50% cell growth inhibition concentration)” value was found to be 1.3 µg/mL in the series with A549 (lung cancer); 2.3 µg/mL in the series with HL-60 (leukemia); 6.9 µg/mL with HT-29 (colon cancer); 6.4 µg/mL with HepG2 (liver cancer); 9.0 µg/mL in the series with MCF-7 (breast cancer); 1.6 µg/mL in the series with U937 (lymphoma cancer). For the same compound, in series [1], the “IC50 (50% cell growth inhibition concentration)” value is 1.7 µg/mL. In addition, the “LC50 (50% cell destroying lethal concentration)” value with A549 (lung cancer) is 4.6 µg/mL; with HL-60 (leukemia), 43 µg/mL; with HT-29 (colon cancer), 12 µg/mL; in the series with HepG2 (liver cancer) it was 33 µg/mL; in the series with MCF-7 (breast cancer) it was 24 µg/mL; with U937 (lymphoma cancer), 6.1 µg/mL. In addition, the “LC50 (50% cell destroying lethal concentration)” value in [1] came out at 22 µg/mL.

Take `C=C(C)[C@@H]1CC[C@]2(C(=O)O)CC[C@]3(C)[C@H](CC[C@@H]4[C@@]5(C)CC[C@H](O)C(C)(C)[C@@H]5CC[C@]43C)[C@@H]12` [TSB-1, betulinic acid]: in the series on tumor/cancer cells, the “effect of inhibiting tumor/cancer cell growth (in words)” value is “may not be as effective as products TSB-2 to TSB-8”.

For the compound `CC(C)=CCC[C@]1(C)C=Cc2c(O)c3c(c(CC=C(C)C)c2O1)O[C@]12C(=C[C@@H]4C[C@H]1C(C)(C)O[C@@]2(C/C=C(/C)C(=O)O)C4=O)C3=O` [TSB-5, gambogic acid], the “IC50 (50% cell growth inhibition concentration)” value in the series on A549 (lung cancer) turned out to be 0.8 µg/mL; in the series on HL-60 (leukemia), 0.50 µg/mL; in the series on HT-29 (colon cancer) it was 4.5 µg/mL; in the series with HepG2 (liver cancer), 0.83 µg/mL; in the series on MCF-7 (breast cancer) it was 0.83 µg/mL; in the series on U937 (lymphoma cancer) it was 0.65 µg/mL. Moreover, the “IC50 (50% cell growth inhibition concentration)” value in series [1] was determined as 0.87 µg/mL. The “LC50 (50% cell destroying lethal concentration)” value came to 2.9 µg/mL with A549 (lung cancer); 5.2 µg/mL with HL-60 (leukemia); 7.1 µg/mL in the series on HT-29 (colon cancer); 2.7 µg/mL in the series with HepG2 (liver cancer); 2.7 µg/mL in the series on MCF-7 (breast cancer); 3.1 µg/mL with U937 (lymphoma cancer). In [1], the “LC50 (50% cell destroying lethal concentration)” value stood at 3.6 µg/mL.

In the case of `CC(C)=CCc1c2c(c(O)c3c1O[C@@]14C(=C[C@H]5CC1C(C)(C)O[C@]4(CC=C(C)C)C5=O)C3=O)C=CC(C)(C)O2` [TSB-8, desoxymorellin], the “IC50 (50% cell growth inhibition concentration)” value in the series with A549 (lung cancer) was determined as 4.8 µg/mL; with HL-60 (leukemia), 6.5 µg/mL; in the series with HT-29 (colon cancer), 6.7 µg/mL; in the series with HepG2 (liver cancer) it was 3.9 µg/mL; in the series with MCF-7 (breast cancer), 5.3 µg/mL; with U937 (lymphoma cancer), 6.2 µg/mL. For the same compound, in series [1], the “IC50 (50% cell growth inhibition concentration)” value amounted to 2.8 µg/mL. For the same compound, the “LC50 (50% cell destroying lethal concentration)” value with A549 (lung cancer) is 56 µg/mL; in the series with HL-60 (leukemia), more than 100 µg/mL; with HT-29 (colon cancer), 69 µg/mL; in the series with HepG2 (liver cancer), 31 µg/mL; in the series with MCF-7 (breast cancer), 83 µg/mL; with U937 (lymphoma cancer), more than 100 µg/mL. Besides, the “LC50 (50% cell destroying lethal concentration)” value in [1] was 40 µg/mL.

With `CC(C)=CCc1c2c(c(O)c3c1OC14C(=CC5CC1C(C)(C)OC4(C/C=C(\C)CO)C5=O)C3=O)C=CC(C)(C)O2` (stereo not shown) [TSB-6, isomorellinol], the “IC50 (50% cell growth inhibition concentration)” value in the series with A549 (lung cancer) was found to be 2.0 µg/mL; in the series with HL-60 (leukemia) it was 1.4 µg/mL; in the series with HT-29 (colon cancer), 5.2 µg/mL; with HepG2 (liver cancer) it was 1.2 µg/mL; in the series on MCF-7 (breast cancer), 0.90 µg/mL; in the series with U937 (lymphoma cancer), 1.3 µg/mL. In addition, the “IC50 (50% cell growth inhibition concentration)” value in series [1] came out at 1.5 µg/mL. Moreover, the “LC50 (50% cell destroying lethal concentration)” value worked out at 9.6 µg/mL in the series with A549 (lung cancer); 6.2 µg/mL in the series on HL-60 (leukemia); 8.5 µg/mL in the series on HT-29 (colon cancer); 3.0 µg/mL with HepG2 (liver cancer); 5.8 µg/mL with MCF-7 (breast cancer); 3.8 µg/mL in the series on U937 (lymphoma cancer). Also, the “LC50 (50% cell destroying lethal concentration)” value in series [1] came out at 9.3 µg/mL.

For `CO[C@@]12[C@H](COC(N)=O)C3=C(C(=O)C(C)=C(N)C3=O)N1C[C@@H]1N[C@@H]12` [mitomycin], the “Weight (g) (mean ± SEM)” value in [2] (Day 1) is given as 22.5 ± 0.6 g; in series [2] (Day 5) it was 20.8 ± 0.3 g; in [2] (Day 9) it was 19.3 ± 0.4 g; in series [2] (Day 13), 19.2 ± 0.3 g; in [2] (Day 17), 18.5 ± 0.2 g; in [2] (Day 21), 17.5 ± 0.2 g. For the same compound, the “Weight (g) (mean ± SEM)” value in [2] (Day 25) is recorded as 16.7 ± 0.2 g; in [2] (Day 29) it was 16.7 ± 0.4 g.

Turning to `CC(C)=CCc1c2c(c(O)c3c1O[C@]14C(=C[C@@H]5C[C@H]1C(C)(C)O[C@@]4(C/C=C(/C)C(=O)O)C5=O)C3=O)C=CC(C)(C)O2` [TSB-7, morellic acid], the “IC50 (50% cell growth inhibition concentration)” value in the series on A549 (lung cancer) stood at 0.76 µg/mL; in the series on HL-60 (leukemia), 1.2 µg/mL; with HT-29 (colon cancer), 2.8 µg/mL; in the series on HepG2 (liver cancer), 1.7 µg/mL; in the series with MCF-7 (breast cancer), 0.98 µg/mL; in the series with U937 (lymphoma cancer), 1.6 µg/mL. The “IC50 (50% cell growth inhibition concentration)” value in series [1] was 0.88 µg/mL. Besides, the “LC50 (50% cell destroying lethal concentration)” value was determined as 3.4 µg/mL with A549 (lung cancer); 5.6 µg/mL in the series with HL-60 (leukemia); 7.2 µg/mL in the series with HT-29 (colon cancer); 3.9 µg/mL in the series with HepG2 (liver cancer); 6.2 µg/mL with MCF-7 (breast cancer); 4.8 µg/mL in the series on U937 (lymphoma cancer). Further, the “LC50 (50% cell destroying lethal concentration)” value in [1] turned out to be 4.8 µg/mL.

As to `CC(C)=CCC[C@]1(C)C=Cc2c(O)c3c(c(CC=C(C)C)c2O1)O[C@]12C(=C[C@@H]4C[C@H]1C(C)(C)O[C@@]2(C/C=C(\C)C(=O)O)C4=O)C3=O` [TSB-3, isogambogic acid], the “IC50 (50% cell growth inhibition concentration)” value in the series on A549 (lung cancer) was determined as 0.88 µg/mL; in the series on HL-60 (leukemia), 0.97 µg/mL; with HT-29 (colon cancer) it was 6.4 µg/mL; in the series with HepG2 (liver cancer), 1.2 µg/mL; in the series with MCF-7 (breast cancer), 1.6 µg/mL; in the series on U937 (lymphoma cancer) it was 0.82 µg/mL. Also, in series [1], the “IC50 (50% cell growth inhibition concentration)” value is 1.1 µg/mL. Also, the “LC50 (50% cell destroying lethal concentration)” value in the series with A549 (lung cancer) stood at 4.8 µg/mL; in the series with HL-60 (leukemia), 4.6 µg/mL; in the series on HT-29 (colon cancer), 8.8 µg/mL; with HepG2 (liver cancer), 1.9 µg/mL; with MCF-7 (breast cancer), 4.3 µg/mL; in the series with U937 (lymphoma cancer), 3.1 µg/mL. In addition, in series [1], the “LC50 (50% cell destroying lethal concentration)” value was determined as 5.2 µg/mL.

Take `CC(C)=CCc1c(O)cc(O)c2c(=O)c3cc4c(c(O)c3oc12)OC(C)(C)C=C4` [TSB-4, 7,9,12-trihydroxy-2,2-dimethyl-10-(3-methyl-but-2-enyl)-2H-pyrano[3,2-b]xanthen-6-one]: the CC50 in the series with A549 (lung cancer) (Homo sapiens, A549, read-out: LC50 (50% cell destroying lethal concentration)) was found to be 21 µg/mL; with HL-60 (leukemia) (Homo sapiens, HL-60, read-out: LC50 (50% cell destroying lethal concentration)), 42 µg/mL; with HT-29 (colon cancer) (Homo sapiens, HT-29, read-out: LC50 (50% cell destroying lethal concentration)), 59 µg/mL; in the series on HepG2 (liver cancer) (Homo sapiens, HepG2, read-out: LC50 (50% cell destroying lethal concentration)), 24 µg/mL; in the series on MCF-7 (breast cancer) (Homo sapiens, MCF7, read-out: LC50 (50% cell destroying lethal concentration)), 40 µg/mL; in the series on U937 (lymphoma cancer) (Homo sapiens, U-937, read-out: LC50 (50% cell destroying lethal concentration)), 28 µg/mL. Further, the “LC50 (50% cell destroying lethal concentration)” value in series [1] is 21 µg/mL.

Values taken from US7138428B2, “Compounds isolated from gamboge resin having activity in inhibiting the growth of tumor/cancer cells and pharmaceutical compositions comprising the same” (Taiwan Sunpan Biotechnology Development Company, Ltd., priority 2004, dated 2006).
